Read-outs that look alike come from different tables or passages of the source.
How the values were obtained:
[1] = target: T1, MMP-2 (Homo sapiens, UniProt P08253); assay: MMP-2 inhibition assay (fluorogenic peptide substrate); assay type: biochemical
T1 construct: purchased Sino Biological 10082-HNAH
T1 sequence (P08253 110-660): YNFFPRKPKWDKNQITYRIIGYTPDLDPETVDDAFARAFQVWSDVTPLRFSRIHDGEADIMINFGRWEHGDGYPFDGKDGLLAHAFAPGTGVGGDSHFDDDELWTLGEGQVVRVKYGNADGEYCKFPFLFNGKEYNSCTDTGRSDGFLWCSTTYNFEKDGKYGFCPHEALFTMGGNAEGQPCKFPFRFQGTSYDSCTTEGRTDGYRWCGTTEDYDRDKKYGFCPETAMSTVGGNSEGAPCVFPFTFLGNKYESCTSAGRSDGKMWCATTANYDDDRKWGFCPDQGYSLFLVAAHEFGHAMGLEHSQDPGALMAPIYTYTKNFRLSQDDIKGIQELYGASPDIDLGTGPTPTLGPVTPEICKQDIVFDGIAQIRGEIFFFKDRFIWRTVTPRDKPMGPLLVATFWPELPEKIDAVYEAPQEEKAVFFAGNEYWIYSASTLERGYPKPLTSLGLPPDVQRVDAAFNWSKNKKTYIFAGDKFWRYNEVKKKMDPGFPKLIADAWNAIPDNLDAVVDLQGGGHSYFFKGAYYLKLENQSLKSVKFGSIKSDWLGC
How it was run: (§1)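 Human proMMP-2 and proMMP-9 were activated with 1 mM APMA (37 °C, 2 h), then used at 6.5 nM (MMP-2) or 10 nM (MMP-9) in Tris/NaCl/CaCl2/Brij 35 buffer, pH 7.5. Enzyme was preincubated with compound 30 min at RT; 25 μM DNP-Pro-Leu-Gly-Met-Trp-Ser-Arg substrate was added and fluorescence (ex 280/em 360 nm) followed 30 min. IC50 from logistic fits of Vmax.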

[2] = target: T2, MMP-9 (Homo sapiens, UniProt P14780); assay: MMP-9 inhibition assay (fluorogenic peptide substrate); assay type: biochemical; parameters: remaining enzyme activity (% of control): scale not given here
T2 construct: purchased Sino Biological 10327-HNAH
How it was run: as §1

[3] = mean ± SE; n.d: not detected; Fig. 5d unit inferred, µM; read-out: IC50
[4] = mean ± SE; n.d: not detected; Fig. 5e prints no unit, µM; read-out: IC50
[5] = MMP-2; concentration 1219.00 µM
[6] = MMP-9; concentration 1219.00 µM
[7] = Figure 5d; fragment combination joined by linker; n.d: not detected; read-out: MMP2 IC50
[8] = Figure 5d; fragment combination joined by linker; n.d: not detected; read-out: MMP9 IC50

T2 sequence (P14780 107-707 limits assumed): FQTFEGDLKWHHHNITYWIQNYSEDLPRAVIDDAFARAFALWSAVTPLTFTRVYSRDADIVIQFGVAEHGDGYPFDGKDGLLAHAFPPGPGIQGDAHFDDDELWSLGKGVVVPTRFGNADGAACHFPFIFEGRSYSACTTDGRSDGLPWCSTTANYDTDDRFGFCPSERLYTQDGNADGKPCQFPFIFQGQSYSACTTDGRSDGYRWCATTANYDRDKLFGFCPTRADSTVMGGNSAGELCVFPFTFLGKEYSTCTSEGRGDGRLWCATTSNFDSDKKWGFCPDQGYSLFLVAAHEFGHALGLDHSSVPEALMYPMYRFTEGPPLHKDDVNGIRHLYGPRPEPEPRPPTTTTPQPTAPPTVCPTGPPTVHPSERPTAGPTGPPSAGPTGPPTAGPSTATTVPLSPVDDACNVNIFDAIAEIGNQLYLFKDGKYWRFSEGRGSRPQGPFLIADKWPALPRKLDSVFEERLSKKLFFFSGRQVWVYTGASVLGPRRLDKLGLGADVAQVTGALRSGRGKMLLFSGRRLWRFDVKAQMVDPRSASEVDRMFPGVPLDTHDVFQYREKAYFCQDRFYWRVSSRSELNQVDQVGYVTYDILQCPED

SMILES | IC50 [1, 3] | IC50 [2, 4] | remaining activity (%) ([1]; MMP-2; concentration 9.75 µM) | remaining activity (%) ([1]; MMP-2; concentration 48.76 µM) | remaining activity (%) ([1]; MMP-2; concentration 243.80 µM) | remaining activity (%) [1, 5] | remaining activity (%) ([1]; MMP-2; concentration 0.0156 µM) | remaining activity (%) ([1]; MMP-2; concentration 0.08 µM) | remaining activity (%) ([1]; MMP-2; concentration 0.39 µM) | remaining activity (%) ([1]; MMP-2; concentration 1.95 µM) | remaining enzyme activity (% of control) ([2]; MMP-9; concentration 0.08 µM) | remaining enzyme activity (% of control) ([2]; MMP-9; concentration 0.39 µM) | remaining enzyme activity (% of control) ([2]; MMP-9; concentration 1.95 µM) | remaining enzyme activity (% of control) ([2]; MMP-9; concentration 9.75 µM) | remaining enzyme activity (% of control) ([2]; MMP-9; concentration 48.76 µM) | remaining enzyme activity (% of control) ([2]; MMP-9; concentration 243.80 µM) | remaining enzyme activity (% of control) [2, 6] | also measured
O=C(CSCCNC(=O)c1cncc(O)c1)NCCNC(=O)Cn1cnc2c(oc3ccccc32)c1=O [182+828 Linker 24] | 33.3 ± 6.4 µM | 35.3 ± 15 µM |  |  |  |  |  |  |  |  |  |  |  |  |  |  |  | remaining activity at 0.011 µM ([1]; MMP-2, concentration 0.011 µM; read-out: Mean (MMP-2, Supplementary fig 16)): 96.4%; remaining activity at 0.0548 µM ([1]; MMP-2, concentration 0.0548 µM; read-out: Mean (MMP-2, Supplementary fig 16)): 104%; remaining activity at 0.27 µM ([1]; MMP-2, concentration 0.27 µM; read-out: Mean (MMP-2, Supplementary fig 16)): 97.6%; remaining activity at 1.37 µM ([1]; MMP-2, concentration 1.37 µM; read-out: Mean (MMP-2, Supplementary fig 16)): 90.8%; remaining activity at 6.86 µM ([1]; MMP-2, concentration 6.86 µM; read-out: Mean (MMP-2, Supplementary fig 16)): 86.3%; remaining activity at 34.28 µM ([1]; MMP-2, concentration 34.28 µM; read-out: Mean (MMP-2, Supplementary fig 16)): 48.6%; remaining activity at 171.4 µM ([1]; MMP-2, concentration 171.40 µM; read-out: Mean (MMP-2, Supplementary fig 16)): 5.35%; remaining activity at 857 µM ([1]; MMP-2, concentration 857.00 µM; read-out: Mean (MMP-2, Supplementary fig 16)): 0%; remaining activity at 0.0548 µM ([2]; MMP-9, concentration 0.0548 µM; read-out: Mean (MMP-9, Supplementary fig 16)): 95.4%; remaining activity at 0.27 µM ([2]; MMP-9, concentration 0.27 µM; read-out: Mean (MMP-9, Supplementary fig 16)): 85.7%; remaining activity at 1.37 µM ([2]; MMP-9, concentration 1.37 µM; read-out: Mean (MMP-9, Supplementary fig 16)): 87.6%; remaining activity at 6.86 µM ([2]; MMP-9, concentration 6.86 µM; read-out: Mean (MMP-9, Supplementary fig 16)): 77.5%; remaining activity at 34.28 µM ([2]; MMP-9, concentration 34.28 µM; read-out: Mean (MMP-9, Supplementary fig 16)): 52.4%; remaining activity at 171.4 µM ([2]; MMP-9, concentration 171.40 µM; read-out: Mean (MMP-9, Supplementary fig 16)): 0%; remaining activity at 857 µM ([2]; MMP-9, concentration 857.00 µM; read-out: Mean (MMP-9, Supplementary fig 16)): 0%
O=C(Cn1cnc2c(oc3ccccc32)c1=O)NCCNC(=O)c1cncc(O)c1 [182+828 Linker 1] | 77.1 ± 10 µM | 92.1 ± 28.2 µM |  |  |  |  |  |  |  |  |  |  |  |  |  |  |  | remaining activity (%) ([1]; MMP-2, concentration 0.00933 µM): 100.18; remaining activity (%) ([1]; MMP-2, concentration 0.0466 µM): 86.28; remaining activity (%) ([1]; MMP-2, concentration 0.23 µM): 84.03; remaining activity (%) ([1]; MMP-2, concentration 5.83 µM): 81.34; remaining activity (%) ([1]; MMP-2, concentration 29.14 µM): 67.66; remaining activity (%) ([1]; MMP-2, concentration 145.72 µM): 34.11; remaining activity (%) ([1]; MMP-2, concentration 728.60 µM): 8.96; remaining enzyme activity (% of control) ([2]; MMP-9, concentration 0.08 µM): 88.36; remaining enzyme activity (% of control) ([2]; MMP-9, concentration 0.42 µM): 92.30; remaining enzyme activity (% of control) ([2]; MMP-9, concentration 2.10 µM): 86.01; remaining enzyme activity (% of control) ([2]; MMP-9, concentration 10.52 µM): 90.65; remaining enzyme activity (% of control) ([2]; MMP-9, concentration 52.60 µM): 56.79; remaining enzyme activity (% of control) ([2]; MMP-9, concentration 263.00 µM): 22.31; remaining enzyme activity (% of control) ([2]; MMP-9, concentration 1315.00 µM): 0.00
O=C(CCC(=O)NCc1c[nH]nn1)NCCCCCCCCNC(=O)Cn1cnc2c(oc3ccccc32)c1=O [182+787 Linker 4] | 193 ± 24.2 µM | 134 ± 39.6 µM | 75.23 | 75.41 | 40.43 | 0.00 |  |  |  |  |  |  |  |  |  |  |  | remaining activity (%) ([1]; MMP-2, concentration 0.0156 µM): 85.89; remaining activity (%) ([1]; MMP-2, concentration 0.08 µM): 83.14; remaining activity (%) ([1]; MMP-2, concentration 0.39 µM): 79.52; remaining enzyme activity (% of control) ([2]; MMP-9, concentration 0.08 µM): 91.89; remaining enzyme activity (% of control) ([2]; MMP-9, concentration 0.39 µM): 89.82; remaining enzyme activity (% of control) ([2]; MMP-9, concentration 1.95 µM): 91.34; remaining enzyme activity (% of control) ([2]; MMP-9, concentration 9.75 µM): 95.46; remaining enzyme activity (% of control) ([2]; MMP-9, concentration 48.76 µM): 62.79; remaining enzyme activity (% of control) ([2]; MMP-9, concentration 243.80 µM): 34.94; remaining enzyme activity (% of control) ([2]; MMP-9, concentration 1219.00 µM): 0.00
Cc1cc(=O)[nH]c(-n2nc(C)c(CCC(=O)NCCCCCCCCNC(=O)c3cncc(O)c3)c2C)n1 [693+828 Linker 4] | 212 ± 15.9 µM | 261 ± 31.3 µM | 100.31 | 87.56 | 44.10 | 12.13 | 102.68 | 100.17 | 95.94 | 99.37 | 97.75 | 94.18 | 90.34 | 92.01 | 87.31 | 52.96 | 7.04 | 
Cc1cc(=O)[nH]c(-n2nc(C)c(CCC(=O)NCCOCCOCCNC(=O)CCC(=O)NCc3c[nH]nn3)c2C)n1 [693+787 Linker 10] | 171 ± 12.6 µM | 230 ± 51.3 µM | 78.88 | 75.04 | 39.80 | 7.43 | 92.29 | 75.74 | 87.35 | 94.03 | 96.44 | 100.55 | 96.19 | 93.95 | 88.14 | 47.49 | 12.51 | 
Cc1cc(=O)[nH]c(-n2nc(C)c(CCC(=O)NCCNC(=O)CSCCNC(=O)c3cncc(O)c3)c2C)n1 [693_828 24] |  |  |  |  |  |  |  |  |  |  |  |  |  |  |  |  |  | IC50 [1, 7]: 59.9 µM; IC50 [2, 8]: 80.5 µM
O=C(CNC(=O)NC12CC3CC(CC(C3)C1)C2)NCc1c[nH]nn1 [66+787 Linker 1] |  |  | 95.17 | 89.24 | 91.48 | 64.77 | 93.33 | 91.88 | 89.28 | 98.93 | 90.03 | 107.83 | 106.33 | 95.98 | 92.70 | 85.14 | 78.29 | 
Cn1c(O)nc2cc(C(=O)NCCCCC=CC(=O)CC(=O)NCCNC(=O)Cn3cnc4c(oc5ccccc54)c3=O)cnc21 [182_826 12] |  |  |  |  |  |  |  |  |  |  |  |  |  |  |  |  |  | IC50 [1, 7]: 62.3 µM; IC50 [2, 8]: 131 µM

— PMC10023787, “Trio-pharmacophore DNA-encoded chemical library for simultaneous selection of fragments and linkers” (Nature Communications, 2023)
